Experimental data as given in US20150352108A1, “AMINO-PYRIMIDINE COMPOUNDS AS INHIBITORS OF TBK1 AND/OR IKK EPSILON” (Alzheimer's Institute of America, priority 2009, published 2015).
Like-named read-outs stand apart in the source and are kept apart here.

Key:
[1] = target: T1, IKKε (Homo sapiens, UniProt Q14164); assay: In-vitro IKKε kinase assay ([γ33]ATP filter-plate); type: biochemical
T1 construct: His-tag; made in house; host or cells: Sf9 insect cells
T1 sequence (Q14164 1-716): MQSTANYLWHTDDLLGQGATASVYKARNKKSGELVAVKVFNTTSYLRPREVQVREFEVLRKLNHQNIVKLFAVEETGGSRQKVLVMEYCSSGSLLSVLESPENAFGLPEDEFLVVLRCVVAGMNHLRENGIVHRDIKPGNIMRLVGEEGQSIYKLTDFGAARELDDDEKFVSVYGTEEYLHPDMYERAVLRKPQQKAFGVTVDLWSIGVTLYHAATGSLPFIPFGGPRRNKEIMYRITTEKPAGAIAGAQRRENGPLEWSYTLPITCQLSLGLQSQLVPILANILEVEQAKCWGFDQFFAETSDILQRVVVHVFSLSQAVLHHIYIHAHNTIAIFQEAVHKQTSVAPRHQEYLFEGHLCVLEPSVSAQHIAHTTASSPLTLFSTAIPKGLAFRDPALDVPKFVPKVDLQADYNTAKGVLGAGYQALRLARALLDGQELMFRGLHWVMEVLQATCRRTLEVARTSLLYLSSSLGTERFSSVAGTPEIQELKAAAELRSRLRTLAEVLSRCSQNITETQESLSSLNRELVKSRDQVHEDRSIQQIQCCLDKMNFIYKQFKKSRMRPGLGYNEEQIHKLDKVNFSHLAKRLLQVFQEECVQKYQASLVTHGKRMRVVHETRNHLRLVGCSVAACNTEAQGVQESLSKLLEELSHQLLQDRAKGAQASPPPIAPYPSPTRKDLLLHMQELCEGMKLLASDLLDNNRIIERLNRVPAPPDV
Summary of the method: (§1)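 His-tagged IKKε and TBK1 from Sf9 cells were assayed with myelin basic protein or casein and [γ33]ATP at 2×Km ATP (32 μM for IKKε, 60 μM for TBK1). Enzyme was 0.1 or 0.015 μg/ml for IKKε and 0.1 or 0.02 μg/ml for TBK1 (normal/sensitized). Reactions ran 30-45 min, were filter-captured, scintillation-counted, and normalized to DMSO after background subtraction.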

[2] = target: T2, TBK1 (Homo sapiens, UniProt Q9UHD2); assay: In-vitro TBK1 kinase assay ([γ33]ATP filter-plate); type: biochemical
T2 construct: His-tag; made in house; host or cells: Sf9 insect cells
T2 sequence (Q9UHD2 1-729): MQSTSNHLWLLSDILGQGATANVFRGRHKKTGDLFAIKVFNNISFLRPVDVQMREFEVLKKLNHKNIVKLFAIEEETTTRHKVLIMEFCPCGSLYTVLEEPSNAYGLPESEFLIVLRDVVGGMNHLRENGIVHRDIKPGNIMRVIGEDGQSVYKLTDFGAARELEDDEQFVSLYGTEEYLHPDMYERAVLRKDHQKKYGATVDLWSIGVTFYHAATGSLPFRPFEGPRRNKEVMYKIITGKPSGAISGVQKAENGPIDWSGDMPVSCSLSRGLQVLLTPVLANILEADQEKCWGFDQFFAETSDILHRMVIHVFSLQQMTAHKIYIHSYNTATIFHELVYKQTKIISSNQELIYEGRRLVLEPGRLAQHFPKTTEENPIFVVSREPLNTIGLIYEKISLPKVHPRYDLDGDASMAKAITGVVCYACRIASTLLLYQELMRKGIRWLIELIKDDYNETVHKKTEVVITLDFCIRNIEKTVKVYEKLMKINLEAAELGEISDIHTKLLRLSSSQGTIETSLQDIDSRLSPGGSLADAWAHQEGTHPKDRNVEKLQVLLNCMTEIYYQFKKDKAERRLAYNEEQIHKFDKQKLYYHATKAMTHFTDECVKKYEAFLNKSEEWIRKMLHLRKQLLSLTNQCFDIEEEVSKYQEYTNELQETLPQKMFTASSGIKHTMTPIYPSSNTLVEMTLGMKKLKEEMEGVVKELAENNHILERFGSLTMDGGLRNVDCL
Summary of the method: as §1

[3] = text bins, read-out: IC50 for inhibition of the kinase activity of IKKε
[4] = text bins, read-out: IC50 for inhibition of the kinase activity of TBK1

SMILES | IC50 [1, 3] [nM] | IC50 [2, 4] [nM] | IC50 ([1]; Table 3, read-out: IKKε IC50) [nM] | IC50 ([2]; Table 3, read-out: TBK1 IC50) [nM]
COc1ccc(-c2ccnc(Nc3ccc(S(=O)(=O)NCCCO)c(OC)c3)n2)cc1C#N [compound 303, 4-{[4-(3-Cyano-4-methoxyphenyl)pyrimidin-2-yl]amino}-N-(3-hydroxypropyl)-2-methoxybenzene-sulfonamide] | 5 to 50 | 10 to 100 |  | 
N#Cc1cc(-c2ccnc(Nc3ccc(N4CCOCC4)cc3)n2)ccc1NCc1ccccc1 [Example 224] | 5 to 50 | 10 to 100 |  | 
N#Cc1cc(-c2ccnc(Nc3ccc(N4CCOCC4)cc3)n2)ccc1N [Example 217, 2-Amino-5-(2-{[4-(morpholin-4-yl)phenyl]amino}pyrimidin-4-yl)benzonitrile] | 5 to 50 | < 10 |  | 
CC(C)C(=O)Nc1ccc(-c2ccnc(Nc3cccc(CCO)c3)n2)cc1C#N [compound 450, N-[2-cyano-4-(2-{[3-(2-hydroxyethyl)phenyl]amino}pyrimidin-4-yl)phenyl]-2-methylpropanamide] | 5 to 50 | < 10 |  | 
N#Cc1cc(-c2ccnc(Nc3ccc(N4CCOCC4)cc3)n2)ccc1OC1CCNCC1 [Example 194, 5-(2-{[4-(Morpholin-4-yl)phenyl]amino}pyrimidin-4-yl)-2-(piperidin-4-yloxy)benzonitrile] | 5 to 50 | < 10 |  | 
COCCNCc1ccc(Nc2nccc(-c3ccc(NC(=O)C4CC4)c(C#N)c3)n2)cc1 [compound 557] | 5 to 50 | 10 to 100 |  | 
COc1ccc(-c2ccnc(Nc3ccc(OC4CCN(C)CC4)c(OC)c3)n2)cc1C#N [compound 302, 2-Methoxy-5-[2-({3-methoxy-4-[(1-methylpiperidin-4-yl)oxy]phenyl}amino)pyrimidin-4-yl]benzonitrile] | 5 to 50 | 10 to 100 |  | 
COc1cc(Nc2nccc(-c3ccc(OCCO)c(C#N)c3)n2)ccc1N1CCNC(=O)C1 [compound 296, 2-(2-Hydroxyethoxy)-5-(2-{[3-methoxy-4-(3-oxopiperazin-1-yl)phenyl]amino}pyrimidin-4-yl)benzonitrile] | 5 to 50 | < 10 |  | 
N#Cc1cccc(-c2ccnc(Nc3ccc(N)cc3)n2)c1 [Example 55, 3-{2-[(4-Aminophenyl)amino]pyrimidin-4-yl}benzonitrile] | 50 to 500 | 100 to 500 |  | 
COc1ccc(Nc2nc(-c3ccc(OC4CCOCC4)c(C#N)c3)c3nc[nH]c3n2)cc1OC [compound 532, 5-{2-[(3,4-Dimethoxyphenyl)amino]-3H-purin-6-yl}-2-(tetrahydro-2H-pyran-4-yloxy)benzonitrile] | 5 to 50 | 10 to 100 |  | 
CC(C)C(=O)Nc1ccc(-c2ccnc(Nc3cccc(OCCN4CCOCC4)c3)n2)cc1C#N [compound 432, N-{2-cyano-4-[2-({3-[2-(morpholin-4-yl)ethoxy]phenyl}amino)pyrimidin-4-yl]phenyl}-2-methylpropanamide] | 5 to 50 | 10 to 100 |  | 
COc1ccc(-c2ccnc(Nc3ccc(N4CCNC(=O)C4)cc3)n2)cc1C#N [Example 71, 2-Methoxy-5-(2-{[4-(3-oxopiperazin-1-yl)phenyl]amino}pyrimidin-4-yl)benzonitrile] | 5 to 50 | 10 to 100 |  | 
COc1ccc(-c2ccnc(Nc3cccc(OCCN4CCOCC4)c3)n2)cc1C#N [compound 314, 2-Methoxy-5-[2-({3-[2-(morpholin-4-yl)ethoxy]phenyl}amino)pyrimidin-4-yl]benzonitrile] | 5 to 50 | 10 to 100 |  | 
CC(C)C(=O)Nc1ccc(-c2ccnc(Nc3ccc(CC(=O)N4CCOCC4)cc3)n2)cc1C#N [compound 419, N-{2-cyano-4-[2-({4-[2-(morpholin-4-yl)-2-oxoethyl]phenyl}amino)pyrimidin-4-yl]phenyl}-2-methylpropanamide] | 5 to 50 | 10 to 100 |  | 
COc1ccc(-c2ccnc(Nc3ccc(N4CCN(C(C)C)C(=O)C4)c(OC)c3)n2)cc1C#N [Example 38, 2-Methoxy-5-[2-({3-methoxy-4-[3-oxo-4-(propan-2-yl)piperazin-1-yl]phenyl}amino)pyrimidin-4-yl]benzonitrile] | 5 to 50 | < 10 |  | 
CS(=O)(=O)N1CCN(c2ccc(Nc3nccc(-c4ccc(OC5CCOCC5)c(C#N)c4)n3)cc2)CC1 [Example 100, 5-[2-({4-[4-(methylsulfonyl)piperazin-1-yl]phenyl}amino)pyrimidin-4-yl]-2-(tetrahydro-2H-pyran-4-yloxy)benzonitrile] | < 5 | < 10 |  | 
COc1ccc(-c2ccnc(Nc3cc(OC)c(OC)c(OC)c3)n2)cc1C#N [compound 341, 2-methoxy-5-{2-[(3,4,5-trimethoxyphenyl)amino]pyrimidin-4-yl}benzonitrile] | < 5 | < 10 |  | 
COc1cc(NC(=O)NCCCN)cc(Nc2nccc(-c3ccc(OC)c(C#N)c3)n2)c1 [compound 320, 1-(3-Aminopropyl)-3-(3-{[4-(3-cyano-4-methoxyphenyl)pyrimidin-2-yl]amino}-5-methoxyphenyl)urea] | 50 to 500 | 10 to 100 |  | 

Further lines, results first:

IC50 [1, 3] [nM] | IC50 [2, 4] [nM] | IC50 ([1]; Table 3, read-out: IKKε IC50) [nM] | IC50 ([2]; Table 3, read-out: TBK1 IC50) [nM] | SMILES
< 5 | < 10 |  |  | CC(C)(C)Oc1ccc(-c2ccnc(Nc3ccc(N4CCOCC4)cc3)n2)cc1C#N [Example 164, 2-tert-Butyoxy-5-(2-{[4-(morpholin-4-yl)phenyl]amino}pyrimidin-4-yl)benzonitrile]
< 5 | < 10 |  |  | N#Cc1cc(-c2ccnc(Nc3ccc(N4CCOCC4)cc3)n2)ccc1OC1CCCCC1 [Example 165, 2-(Cyclohexyloxy)-5-(2-{[4-(morpholin-4-yl)phenyl]amino}pyrimidin-4-yl)benzonitrile]
< 5 | < 10 |  |  | COc1ccc(Nc2nccc(-c3ccc(OC(C)C)c(C#N)c3)n2)cc1OC [Example 111, 5-{2-[(3,4-Dimethoxyphenyl)amino]pyrimidin-4-yl}-2-(propan-2-yloxy)benzonitrile]
< 5 | < 10 |  |  | N#Cc1cc(-c2ccnc(Nc3ccc(N4CCOCC4)cc3)n2)ccc1NC(=O)C1C[C@@H]1F (stereo partly drawn) [Example 216, (2S)-N-[2-cyano-4-(2-{[4-(morpholin-4-yl)phenyl]amino}pyrimidin-4-yl)phenyl]-2-fluorocyclopropane-carboxamide]
< 5 | < 10 |  |  | N#Cc1cc(-c2ccnc(Nc3ccc(N4CCOCC4)cc3)n2)ccc1OC1CCOC1 (centres unmarked) [Example 261, 5-(2-{[4-(Morpholin-4-yl)phenyl]amino}pyrimidin-4-yl)-2-(tetrahydrofuran-3-yloxy)benzonitrile]
< 5 | < 10 |  |  | CS(=O)(=O)N1CCC(Nc2ccc(Nc3nccc(-c4ccc(OC5CCOCC5)c(C#N)c4)n3)cc2)CC1 [Example 171, 5-{2-[(4-{[1-(methylsulfonyl)piperidin-4-yl]amino}phenyl)amino]pyrimidin-4-yl}-2-(tetrahydro-2H-pyran-4-yloxy)benzonitrile]
< 5 | < 10 | 1.5 | 0.6 | N#Cc1cc(-c2ccnc(Nc3cccc(CS(=O)(=O)NCCO)c3)n2)ccc1OCC1CC1 [compound 611, 1-[3-({4-[3-Cyano-4-(cyclopropylmethoxy)phenyl]pyrimidin-2-yl}amino)phenyl]-N-(2-hydroxyethyl) methanesulfonamide]
< 5 | < 10 |  |  | COc1ccc(Nc2nccc(-c3ccc(O)c(C#N)c3)n2)cc1OC [Example 118]
< 5 | < 10 |  |  | COc1ccc(-c2ccnc(Nc3ccc(N4CCOCC4)c(Cl)c3)n2)cc1C#N [Example 98]
